Assay: In vivo PK in rats after ip administration
Details: rat, ip 10 mg/kg, at Tmax 30 min

Compound	plasma (maximum concentration) [µM]	brain (maximum concentration) [µM]
CCCC(=O)c1ccc(OCCCCOc2cc(C(=O)O)ccc2OC)c(C)c1O [Compound 68, 3-(4-(4-Butyryl-3-hydroxy-2-methylphenoxy)butoxy)-4-methoxybenzoic Acid]	2.18 ± 0.58	
Cc1c(OCCCCOc2ccc(F)c(C(=O)O)c2)ccc(C(=O)CC(C)(C)C)c1O [Compound 75, 5-(4-(4-(3,3-Dimethylbutanoyl)-3-hydroxy-2-methylphenoxy)butoxy)-2-fluorobenzoic Acid]	6.52 ± 0.54	0.22 ± 0.04
Cc1c(OCCCCOc2ccc(F)c(C(=O)O)c2)ccc(C(=O)C(C)C)c1O [Compound 65, 2-Fluoro-5-(4-(3-hydroxy-4-isobutyryl-2-methylphenoxy)butoxy)benzoic Acid]	5.44 ± 2.92	
COc1ccc(C(=O)O)cc1OCCCCOc1ccc(C(=O)CC(C)(C)C)c(O)c1C [Compound 72, 3-(4-(4-(3,3-Dimethylbutanoyl)-3-hydroxy-2-methylphenoxy)butoxy)-4-methoxybenzoic Acid]	2.44 ± 2.19	
COc1cc(C(=O)O)ccc1OCCCCOc1ccc(C(=O)CC(C)C)c(O)c1C [Compound 44, 4-{4-[3-Hydroxy-2-methyl-4-(3-methylbutanoyl)phenoxy]butoxy}-3-methoxybenzoic Acid]	10.57 ± 2.52	0.23 ± 0.10

Reference: article PMC4033659 (Journal of Medicinal Chemistry, 2014)
